Tests used:
Barnacle = assay: Cyprid settling rate assay, single compounds and combinations (Example 2); format: in vivo; details: single substance
Method: (§1) Settling experiments were performed in order to evaluate the substances effect on settling rate of cyprid larvae. The barnacle cyprid larvae are reared in the laboratory. Approximately 20 cyprids were incubated in seawater in plastic hydrophobic Petri-dishes. Substances subjected for testing were added in different concentration and compared with controls. After one week the amount of settled, frees-swimming and dead larvae in the Petri dishes were counted.
(§2) Catemine 3 is combined with an effective anti-algae compound according to the invention, such as dichlofluanid (table 3), SeaNine™ (table 4), Irgarol™ (table 5) and Diuron™ (table 6). All the different brands are tested in combination with Catemine 3 for efficacy against both barnacles and algae with the two compounds together or separately. The assays that are be used are the cyprid settling rate assay and the algae germination test.

Ulva = assay: Algae spore germination test, Ulva; format: in vivo; details: single substance
Method: The efficacy of algicides is usually tested by a spore germination test. Algae are collected from the field and grown in the laboratory. […] The water with test compound is then removed and culture medium is added. The spores are left to germinate under fluorescent lamps (50 μMm-2s-1 (PAR)), 16 h light, 8 h darkness, for 7 days in a culture medium, which was changed once a day. […]

barnacle cyprid larvae = assay: Settling experiments with barnacle cyprid larvae (Example 1); format: in vivo; details: for Dead (%) / Free swimming (%) / Settled (%): counted after one week
Method: Barnacle cyprid larvae were incubated in filtered sea water with and without the tested substance.
as §1

algae = details: target protein lacking in algae; reference (6); cited from earlier work
Enteromorpha = assay: Algae spore germination test, Enteromorpha; format: in vivo; details: single substance
Method: The efficacy of algicides is usually tested by a spore germination test. Algae are collected from the field and grown in the laboratory. After induced sporulation the spores are added to test vials, with the test compound dissolved in pasteurized deep sea water, where they are allowed to settle in darkness for a couple of hours (2-3 h) to give an even distribution of settled spores in the vials. The water with test compound is then removed and culture medium is added. The spores are left to germinate under fluorescent lamps (50 μMm-2s-1 (PAR)), 16 h light, 8 h darkness, for 7 days in a culture medium, which was changed once a day.
as §2

| Structure (SMILES) | Barnacle biofouling (% settlement) (Barnacle; 0.1 nM) | Barnacle biofouling (% settlement) (Barnacle; 1 nM) | Barnacle biofouling (% settlement) (Barnacle; 10 nM) | Barnacle biofouling (% settlement) (Barnacle; 100 nM) | Ulva biofouling (% survival) (Ulva; 0.1 nM) | Ulva biofouling (% survival) (Ulva; 1 nM) | Ulva biofouling (% survival) (Ulva; 10 nM) | Ulva biofouling (% survival) (Ulva; 100 nM) | Dead (%) (barnacle cyprid larvae; 100 pM in seawater) | Free swimming (%) (barnacle cyprid larvae; 100 pM in seawater) | Settled (%) (barnacle cyprid larvae; 100 pM in seawater) | Dead (%) (barnacle cyprid larvae; 1 nM in seawater) | Free swimming (%) (barnacle cyprid larvae; 1 nM in seawater) | Settled (%) (barnacle cyprid larvae; 1 nM in seawater) | Dead (%) (barnacle cyprid larvae; 10 nM in seawater) | Free swimming (%) (barnacle cyprid larvae; 10 nM in seawater) | Settled (%) (barnacle cyprid larvae; 10 nM in seawater) | Dead (%) (barnacle cyprid larvae; 100 nM in seawater) | Free swimming (%) (barnacle cyprid larvae; 100 nM in seawater) | Settled (%) (barnacle cyprid larvae; 100 nM in seawater) | other results |
| --- | --- | --- | --- | --- | --- | --- | --- | --- | --- | --- | --- | --- | --- | --- | --- | --- | --- | --- | --- | --- | --- |
| CCCCCCCCn1sc(Cl)c(Cl)c1=O [SeaNine, 4,5-dichloro-2-n-octyl-3(2H)-isothiazolone] | 100% | 50% | 10% | 0% | 100% | 50% | 10% | 0% |  |  |  |  |  |  |  |  |  |  |  |  |  |
| CN(C)C(=O)Nc1ccc(Cl)c(Cl)c1 [Diuron, 3-(3,4-dichlorophenyl)1,1-dimethylurea] |  |  |  |  |  |  |  |  |  |  |  |  |  |  |  |  |  |  |  |  | Barnacle biofouling (% settlement) (Barnacle; 0.1 μM): 100%; Barnacle biofouling (% settlement) (Barnacle; 1 μM): 100%; Barnacle biofouling (% settlement) (Barnacle; 10 μM): 100%; Barnacle biofouling (% settlement) (Barnacle; 100 μM): 100%; Ulva biofouling (% survival) (Ulva; 0.1 μM): 100%; Ulva biofouling (% survival) (Ulva; 1 μM): 90%; Ulva biofouling (% survival) (Ulva; 10 μM): 50%; Ulva biofouling (% survival) (Ulva; 100 μM): 0% |
| CN(C)S(=O)(=O)N(SC(F)(Cl)Cl)c1ccccc1 [Dichlofluanid, N′-dimethyl-N-phenylsulphamide] |  |  |  |  |  |  |  |  |  |  |  |  |  |  |  |  |  |  |  |  | Barnacle biofouling (% settlement) (Barnacle; 0.1 μg/ml): 100%; Barnacle biofouling (% settlement) (Barnacle; 1 μg/ml): 50%; Barnacle biofouling (% settlement) (Barnacle; 10 μg/ml): 25%; Barnacle biofouling (% settlement) (Barnacle; 100 μg/ml): 0%; Ulva biofouling (% survival) (Ulva; 0.1 μg/ml): 100%; Ulva biofouling (% survival) (Ulva; 1 μg/ml): 90%; Ulva biofouling (% survival) (Ulva; 10 μg/ml): 10%; Ulva biofouling (% survival) (Ulva; 100 μg/ml): 0% |
| Cc1cccc(C(C)c2c[nH]cn2)c1C (racemic) [Catemine 1, (+/−)-4-[1-(2,3-dimethylphenyl)ethyl]-1H-imidazole] |  |  |  |  |  |  |  |  | 0% | 48% | 52% | 0% | 98% | 2% | 0% | 100% | 0% | 0% | 100% | 0% | Dead (%) (barnacle cyprid larvae; 1 μM in seawater): 0%; Free swimming (%) (barnacle cyprid larvae; 1 μM in seawater): 100%; Settled (%) (barnacle cyprid larvae; 1 μM in seawater): 0%; Effect on algal growth (algae): no effect of algal growth |
| CSc1nc(NC2CC2)nc(NC(C)(C)C)n1 [Irgarol, 2-methylthio-4-tert-butylamino-6-cyclopropylamino-s-triazine] | 100% | 100% | 100% | 100% |  |  |  |  |  |  |  |  |  |  |  |  |  |  |  |  | Enteromorpha biofouling (% survival) (Enteromorpha; 0.1 nM): 100%; Enteromorpha biofouling (% survival) (Enteromorpha; 1 nM): 100%; Enteromorpha biofouling (% survival) (Enteromorpha; 10 nM): 50%; Enteromorpha biofouling (% survival) (Enteromorpha; 100 nM): 0% |
| NC1=N[C@]2(CCc3cccc(Cl)c3C2)CO1 [Catemine 3, (S)-spiro[(1-oxa-2-amino-3-azacyclopent-2-ene)-4,29-(89-chloro-19,29,39,49 tetrahydronaphthalene)]] | 10% | 0% | 0% | 0% | 100% | 100% | 100% | 100% | 5% | 93% | 2% | 3% | 97% | 0% | 0% | 95% | 3% | 0% | 100% | 0% | Dead (%) (barnacle cyprid larvae; 10 pM in seawater): 0%; Free swimming (%) (barnacle cyprid larvae; 10 pM in seawater): 96%; Settled (%) (barnacle cyprid larvae; 10 pM in seawater): 4%; Dead (%) (barnacle cyprid larvae; 1 μM in seawater): 0%; Free swimming (%) (barnacle cyprid larvae; 1 μM in seawater): 100%; Settled (%) (barnacle cyprid larvae; 1 μM in seawater): 0%; Dead (%) (barnacle cyprid larvae; 10 μM in seawater): 2%; Free swimming (%) (barnacle cyprid larvae; 10 μM in seawater): 98%; Settled (%) (barnacle cyprid larvae; 10 μM in seawater): 0%; Dead (%) (barnacle cyprid larvae; 100 μM in seawater): 100%; Free swimming (%) (barnacle cyprid larvae; 100 μM in seawater): 0%; Settled (%) (barnacle cyprid larvae; 100 μM in seawater): 0%; Decrease in concentration needed for settlement inhibition compared to Catemine 1 (barnacle cyprid larvae; compared to Catemine 1): 100-fold decrease in concentration needed for settlement inhibition.; Potency comparison of antisettling activity (barnacle cyprid larvae; comparison of Tables 1 and 2): more potent than Catemine 1; Enteromorpha biofouling (% survival) (Enteromorpha; 0.1 nM): 100%; Enteromorpha biofouling (% survival) (Enteromorpha; 1 nM): 100%; Enteromorpha biofouling (% survival) (Enteromorpha; 10 nM): 100%; Enteromorpha biofouling (% survival) (Enteromorpha; 100 nM): 100% |
